This assay concerns the target T1, pmCiC (plasma membrane citrate transporter) (Homo sapiens, UniProt P53007).
T1 construct: gene SLC25A1; His-tagged pmCiC expressed in Sf9 cells, solubilized in dodecylmaltoside and purified by Ni-NTA
Kind of assay: Trp fluorescence quenching titration of purified protein. It counts as binding.

T1 sequence (P53007 14-311): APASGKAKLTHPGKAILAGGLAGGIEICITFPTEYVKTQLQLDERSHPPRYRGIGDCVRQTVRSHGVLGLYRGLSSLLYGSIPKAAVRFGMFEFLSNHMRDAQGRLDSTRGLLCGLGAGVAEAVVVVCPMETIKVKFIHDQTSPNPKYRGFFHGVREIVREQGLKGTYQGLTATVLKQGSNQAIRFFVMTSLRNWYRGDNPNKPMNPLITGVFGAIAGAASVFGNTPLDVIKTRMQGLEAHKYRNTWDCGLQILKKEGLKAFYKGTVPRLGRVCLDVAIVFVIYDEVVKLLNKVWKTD

`O=C(O)CC(O)(CC(=O)O)C(=O)O` [citrate]: binding was put at a Kd of 16 mM.

One may read the Kd as a measure of binding affinity in units of concentration. Lower therefore signals higher affinity.

Source of the values: PMC7994318, “Cancer-associated cells release citrate to support tumour metastatic progression” (Life Science Alliance, 2021).
